Data taken from publication PMC10255713, “Palm Fruit (Phoenix dactylifera L.) Pollen Extract Inhibits Cancer Cell and Enzyme Activities and DNA and Protein Damage” (Nutrients, 2023).

Columns and labels:
[1] = tested on: Pseudomonas aeruginosa (ATCC 27853); assay: Agar-well diffusion susceptibility test; type: cell-based; details: P. aeruginosa
Procedure: (§1) The pre-cultures of these pathogens were prepared through separate cultivation on Muller–Hinton broth at 37 °C for 24 h. […] After cultivation at 37 °C for 24 h, the developed inhibition zones (Halo zones) around wells indicated positive results. Amoxicillin (AX-25) and ampicillin (AM-10) were included as reference antibacterial drugs, while clotrimazole (CLT) and amphotericin-B (AmB) were applied as reference antifungal drugs.

[2] = tested on: Staphylococcus aureus (ATCC 25923); assay: Agar-well diffusion susceptibility test; type: cell-based; details: S. aureus
Procedure: as §1

[3] = tested on: Salmonella typhimurium (ATCC 14028); assay: Agar-well diffusion susceptibility test; type: cell-based; details: S. typhimurium
Procedure: as §1

[4] = tested on: Escherichia coli (ATCC 25922); assay: Agar-well diffusion susceptibility test; type: cell-based; details: E. coli
Procedure: as §1

[5] = tested on: Streptococcus mutans (ATCC 25175); assay: Agar-well diffusion susceptibility test; type: cell-based; details: S. mutans
Procedure: as §1

[6] = tested on: bovine serum albumin (BSA); assay: Protein oxidation produced by AAPH (SDS-PAGE); details: AAPH 20 mM, 30 min
Procedure: The mixture was then incubated in a shaking water bath for 30 min at 37 °C. A control sample not including AAPH was also prepared. After incubation, the mixture was loaded onto an SDS-PAGE 10% gel under reduction conditions for 5 min at 100 °C. Images of the stained gel were captured using a Chemi-Doc MV gel documentation system (Bio-Rad, Hercules, CA, USA). The intensity of the bands was determined to quantify the aggregate of protein damage for all bands employing Image Lab 4.1 Software version 6.1.0 (Bio-Rad, Hercules, CA, USA). […] The use of SDS-PAGE and staining methods provides a visual representation of the extent of protein damage and allows for quantification of the results.

[7] = ABTS free radical-scavenging assay; details: for ABTS maximum antioxidant activity: at 5 mg/mL
Procedure: The ABTS^• radicals are employed as a model system to assess the antioxidant activity of the compounds [33]. The percentage inhibition of the ABTS^• radicals by the test compounds was calculated using Equation 1, as described earlier.

acetylcholinesterase = acetylcholinesterase (Homo sapiens, UniProt P22303); assay: Acetylcholinesterase inhibition assay; type: biochemical
Procedure: The mixture was then incubated at room temperature for 15 min. After this, 475 µL of 3 mM DTNB solution and 75 µL of […] 15 mM were added to the mixture and incubated for an additional 30 min at room temperature. Finally, the absorbance of the mixture was measured at 405 nm, and the percentage of inhibition activity of acetylcholinesterase was calculated by Equation (1), as explained earlier.

plasmid pBR322 DNA = assay: Free radical-induced (H2O2 + UV) DNA damage assay; type: biochemical
Procedure: Once the reaction was completed, the tested samples were electrophoresed through a polysaccharide agarose 0.8% gel, and we stained the electrophoresed gel with ethidium bromide. The electrophoresed gel was analyzed, and we captured photographs of the electrophoresed gel using Image Lab 4.1 software, version 6.1.0. (Bio-Rad, Hercules, CA, USA).

porcine α-amylase = biological target: T1, porcine α-amylase (Sus scrofa, UniProt P00690); assay: Porcine α-amylase inhibition assay; type: biochemical
T1 sequence (P00690 16-511): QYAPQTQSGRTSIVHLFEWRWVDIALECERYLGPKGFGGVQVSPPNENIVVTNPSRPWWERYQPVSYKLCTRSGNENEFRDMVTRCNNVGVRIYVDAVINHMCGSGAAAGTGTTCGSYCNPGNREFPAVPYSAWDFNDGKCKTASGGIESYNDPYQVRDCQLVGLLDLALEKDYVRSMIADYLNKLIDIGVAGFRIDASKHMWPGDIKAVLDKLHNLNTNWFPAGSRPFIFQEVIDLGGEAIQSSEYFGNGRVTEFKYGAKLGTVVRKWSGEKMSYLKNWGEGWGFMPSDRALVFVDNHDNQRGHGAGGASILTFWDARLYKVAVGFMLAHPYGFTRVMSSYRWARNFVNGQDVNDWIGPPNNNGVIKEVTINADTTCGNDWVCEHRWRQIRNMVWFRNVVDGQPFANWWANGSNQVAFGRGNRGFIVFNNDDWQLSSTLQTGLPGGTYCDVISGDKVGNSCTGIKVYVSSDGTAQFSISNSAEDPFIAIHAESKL
Procedure: In this study, the inhibition activity of porcine α-amylase was evaluated following a previously reported method. […] The combination was incubated at 25 °C for a specific period, following which starch solution mixed with sodium phosphate (0.02 M pH 6.9) and sodium chloride (6 mM) was added and incubated at 25 °C for 10 min. After the incubation, 1 mL of dinitrosalicylic acid (color reagent) was included in the mixture at 100 °C for 10 min to stop the reaction, followed by chilling to 25 °C. The absorbance of the resulting combination was measured at 540 nm, after adding 1 mL of deionized water. The percentage of inhibition activity of porcine α-amylase was calculated using Equation (1).

[8] = Ferric-reducing/antioxidant power (FRAP) assay; details: for maximum FRAP value: at 5 mg/mL; for FRAP antioxidant inhibition activity IC50: wet basis, mean ± SD, n = 3
Procedure: The FRAP reagent was prepared by mixing TPTZ (10 mM mixture) in 40 mM HCl, FeCl3 (20 mM), and acetate buffer (pH 3.6, 0.3 M) in a ratio of 1:1:10 (v/v/v). Next, 1 mL of the test sample was mixed with 2 mL of freshly prepared FRAP reagent, and the solutions were incubated for 30 min at 37 °C. The absorbance of the resulting mixture was measured at 593 nm. Deionized water was employed as a blank, and FeSO4 was used to establish the calibration curve. The FRAP values were expressed as µmol of Fe (II).

[9] = Nitric oxide radical (NO) scavenging, Griess reaction; details: for NO-scavenging maximum inhibition: at 5 mg/mL; for Nitric Oxide scavenging IC50: wet basis, mean ± SD, n = 3
Procedure: The reaction mixture contained 2 mL of sodium nitroprusside (10 mM), 0.5 mL of saline phosphate buffer, and 0.5 mL of the test samples. The mixtures were incubated for 150 min at 25 °C. After incubation, 0.5 mL of the reaction mixture was combined with 1 mL of sulfanilic acid reagent (0.33% in 20% glacial acetic acid). Following a 5 min wait, 1 mL of naphthyl ethylene diamine dihydrochloride (0.1%) was added. The mixtures were left for 30 min at room temperature, and the absorbance was measured at 540 nm. The percentage of nitrites was calculated using Equation 1, as described earlier.

[10] = DPPH free radical-scavenging assay; details: wet basis; mean ± SD, n = 3
Procedure: The percentage inhibition of these radical compounds was determined using Equation (1):% Inhibition DPPH^• = (Abs. control − Abs. sample)/(Abs. control) × 100(1)
The absorbance of the DPPH^• mixture without the test sample was considered as the Abs. control test. Absorbance was measured with a Varian CARY 50 Scan UV–VIS Spectrophotometer equipped with a Cary 50 Microplate Reader (Varian, Inc., Walnut Creek, CA, USA).

mushroom tyrosinase = assay: Tyrosinase inhibition assay; type: biochemical; details: for tyrosinase inhibition: highest concentration (5 mg/mL); for Tyrosinase inhibition activity IC50: mean ± SD, n = 3
Procedure: To assess the inhibition of tyrosinase activity, a previously reported method was followed in this study. […] The mixture was incubated at 37 °C for 10 min, and then 1 mL of 50 units/mL mushroom tyrosinase liquefied in 0.2 M, pH 6.8 phosphate buffer was added. The resulting mixture was incubated for an additional 10 min, and the absorbance was measured at 475 nm. Ethanol (50%) was used as a blank, while 1 mL of deionized water was a control. The percentage of tyrosinase inhibition activity was calculated using Equation (1).

[11] = Total antioxidant capacity (TAC) phosphomolybdate assay; details: for maximum total antioxidant capacity value (absorbance at 695 nm): at 5 mg/mL; for Total Antioxidant Capacity IC50: wet basis, mean ± SD, n = 3
Procedure: Briefly, a reagent containing sodium phosphate (28 mM), sulfuric acid (0.6 M), and ammonium molybdate (4 mM) was added to 0.1 mL of the test samples, and the mixture was incubated at 95 °C for 90 min. After cooling, the absorbance of the mixture was measured at 695 nm. A higher absorbance value indicates a greater antioxidant capacity of the tested samples.

[12] = tested on: Candida albicans (ATCC 10231); assay: Agar-well diffusion susceptibility test; type: cell-based; details: C. albicans; Control 2 for yeast, 10 mg/disc
Procedure: as §1

[13] = highest concentration tested (5 mg/mL)

Chain of acetylcholinesterase (P22303 32-614, species assumed): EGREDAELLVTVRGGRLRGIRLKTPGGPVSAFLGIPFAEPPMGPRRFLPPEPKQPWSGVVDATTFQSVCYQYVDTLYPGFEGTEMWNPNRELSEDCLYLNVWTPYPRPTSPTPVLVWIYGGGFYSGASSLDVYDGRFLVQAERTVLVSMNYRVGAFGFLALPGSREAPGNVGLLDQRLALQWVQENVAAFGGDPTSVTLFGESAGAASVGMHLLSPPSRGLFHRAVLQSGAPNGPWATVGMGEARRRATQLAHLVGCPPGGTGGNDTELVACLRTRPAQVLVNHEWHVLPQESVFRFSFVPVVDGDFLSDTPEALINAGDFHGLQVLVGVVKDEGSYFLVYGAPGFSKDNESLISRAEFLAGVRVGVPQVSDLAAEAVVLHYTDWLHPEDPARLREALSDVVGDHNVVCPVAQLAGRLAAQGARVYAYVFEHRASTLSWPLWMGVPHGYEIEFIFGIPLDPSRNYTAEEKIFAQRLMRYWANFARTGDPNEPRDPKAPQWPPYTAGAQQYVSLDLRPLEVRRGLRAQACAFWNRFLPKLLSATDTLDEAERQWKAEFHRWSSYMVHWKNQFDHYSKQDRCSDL

In the case of CC1(C)S[C@@H]2[C@H](NC(=O)[C@H](N)c3ccc(O)cc3)C(=O)N2[C@H]1C(=O)O [amoxicillin], the inhibition-zone diameter ([1]; Control 1, 25 mg/disc) is reported as 28.00 ± 2.76 mm, the inhibition-zone diameter ([2]; Control 1, 25 mg/disc) is reported as “−ve” and the inhibition-zone diameter ([3]; Control 1, 25 mg/disc) is reported as 30.00 ± 1.30 mm. The inhibition-zone diameter ([4]; Control 1, 25 mg/disc) was 25.00 ± 2.40 mm and the inhibition-zone diameter ([5]; Control 1, 25 mg/disc) was 37.00 ± 2.80 mm.

For C[C@@H]1O[C@@H](OC[C@H]2O[C@@H](Oc3c(-c4ccc(O)c(O)c4)oc4cc(O)cc(O)c4c3=O)[C@H](O)[C@@H](O)[C@@H]2O)[C@H](O)[C@H](O)[C@H]1O [Rutin, rutin], the “BSA damage inhibition activity IC50” value [6] was 3.68 ± 0.35 mg/L, the “ABTS maximum antioxidant activity” value [7] was 92.69 ± 0.32% and the “ABTS antioxidant inhibition activity IC50” value ([7]; wet basis, mean ± SD, n = 3) was 6.50 ± 0.08 mg/L. The IC50 (acetylcholinesterase) was 1490 µM, the inhibition at 5000 µg/mL (acetylcholinesterase; highest concentration tested (5 mg/mL), read-out: AChE activity inhibition) was 15.92 ± 0.13% and the “DNA damage inhibition activity IC50” value (plasmid pBR322 DNA) was 15.00 ± 0.22 mg/L. The IC50 (porcine α-amylase) was 142 µM, the inhibition at 5000 µg/mL (porcine α-amylase; [13]) was 91.51 ± 0.51% and the “maximum FRAP value” [8] was 10,644.00 ± 86.02 µmol of Fe (II). For the same compound, the “FRAP antioxidant inhibition activity IC50” value [8] was 391.00 ± 7.46 mg/L, the NO-scavenging maximum inhibition [9] was 79.01 ± 0.07% and the “Nitric Oxide scavenging IC50” value [9] was 270.10 ± 3.51 mg/L. For the same compound, the “DPPH antioxidant inhibition activity IC50” value [10] was 417.80 ± 5.78 mg/L, the tyrosinase inhibition (mushroom tyrosinase) was 55.00 ± 0.23% and the “Tyrosinase inhibition activity IC50” value (mushroom tyrosinase) was 494.40 ± 27.86 mg/L. The “maximum total antioxidant capacity value (absorbance at 695 nm)” value [11] was 1.57 ± 0.01 and the “Total Antioxidant Capacity IC50” value [11] was 17,600 ± 41.64 µg/mL.

With O=C1O[C@H]([C@@H](O)CO)C(O)=C1O [VC, vitamin C] the “BSA damage inhibition activity IC50” value [6] was 25.32 ± 1.29 mg/L, the “ABTS maximum antioxidant activity” value [7] was 90.13 ± 0.04% and the “DNA damage inhibition activity IC50” value (plasmid pBR322 DNA) was 505.00 ± 21.63 mg/L. For the same compound, the α-amylase activity inhibition (porcine α-amylase; [13]) was 93.18 ± 0.18%, the “Porcine α-amylase inhibition activity IC50” value (porcine α-amylase; mean ± SD, n = 3) was 97.62 ± 8.14 mg/L and the “maximum FRAP value” [8] was 10,233.67 ± 243.72 µmol of Fe (II). For the same compound, the “FRAP antioxidant inhibition activity IC50” value [8] was 743.60 ± 30.11 mg/L, the NO-scavenging maximum inhibition [9] was 56.55 ± 1.52% and the “Nitric Oxide scavenging IC50” value [9] was 2710.00 ± 13.35 mg/L. The “DPPH antioxidant inhibition activity IC50” value [10] was 881.70 ± 13.38 mg/L, the tyrosinase inhibition (mushroom tyrosinase) was 98.72 ± 0.15% and the “Tyrosinase inhibition activity IC50” value (mushroom tyrosinase) was 1881.00 ± 48.56 mg/L. For the same compound, the “maximum total antioxidant capacity value (absorbance at 695 nm)” value [11] was 0.041 ± 0.000 and the “Total Antioxidant Capacity IC50” value [11] was 3005.00 ± 72.45 µg/mL.

Compound O=c1cc(CO)occ1O [Kojic Acid, kojic acid] has a tyrosinase inhibition (mushroom tyrosinase) of 99.88 ± 0.11%.

For C[C@@H]1[C@H](O)[C@@H](C)/C=C/C=C/C=C/C=C/C=C/C=C/C=C/[C@H](O[C@@H]2O[C@H](C)[C@@H](O)[C@H](N)[C@@H]2O)C[C@@H]2O[C@](O)(C[C@@H](O)C[C@@H](O)[C@H](O)CC[C@@H](O)C[C@@H](O)CC(=O)O[C@H]1C)C[C@H](O)[C@H]2C(=O)O [amphotericin-B], the inhibition-zone diameter [12] was 25.50 ± 2.30 mm.

In the case of CC1(C)S[C@@H]2[C@H](NC(=O)[C@H](N)c3ccccc3)C(=O)N2[C@H]1C(=O)O [ampicillin], the inhibition-zone diameter ([1]; Control 2, 10 mg/disc) is reported as 13.20 ± 0.68 mm, the inhibition-zone diameter ([2]; Control 2, 10 mg/disc) is reported as “−ve” and the inhibition-zone diameter ([3]; Control 2, 10 mg/disc) is reported as 10.00 ± 0.80 mm. The inhibition-zone diameter ([4]; Control 2, 10 mg/disc) was “−ve” and the inhibition-zone diameter ([5]; Control 2, 10 mg/disc) was 18.00 ± 1.48 mm.

C[C@H]1O[C@H](O[C@H]2[C@H](O)[C@@H](O)[C@@H](O[C@H]3[C@H](O)[C@@H](O)C(O)O[C@@H]3CO)O[C@@H]2CO)[C@H](O)[C@@H](O)[C@@H]1N[C@H]1C=C(CO)[C@@H](O)[C@H](O)[C@H]1O (some centres unmarked) [Acarbose, acarbose] showed an inhibition at 5000 µg/mL (porcine α-amylase; [13]) of 99.12 ± 0.1%.
